According to patent US20100303896A1, “5BETA, 14BETA-ANDROSTANE DERIVATIVES USEFUL FOR THE TREATMENT OF RESTENOSIS AFTER ANGIOPLASTIC OR ENDOARTHERECTOMY AND DISEASES DUE TO ORGAN FIBROSIS” (SIGMA-TAU INDUSTRIE FARMACEUTICHE RIUNITE S.P.A., priority 2007, published 2010):
Where “and” joins values, the source holds several entries; their conditions need not be identical. Identical values can stand only once. Entries after “also recorded” stand apart in the source; their conditions may differ.

How the values were obtained:
Assay type in all cases: in vivo, rat
[1] = test system: MHS rats with CCl4-induced liver fibrosis; assay: CCl4-induced liver fibrosis: quantitative histomorphometric analysis of fibrotic area (Sirius Red, ImageJ)
Excerpt: (§1) To test the activity of the compound of the invention for the prevention and treatment of organ fibrosis, spontaneous hypertensive MHS rats with genetic arterial hypertension (Bianchi G., Barber B. R., Torielli L., Ferrari P. The Milan hypertensive strain of rats. Genetic Model of Hypertension. 1994; 22: 457-460) were used. MHS rats are available at Prassis Research Institute, Sigma-tau, Italy.
Liver fibrosis was induced by CCl4 oral administration as described in J. Hepatol. 1999; 30: 621-631, with minor modifications: 0.375 ml/kg of CCl4 dissolved in olive oil was administered three times per week for three weeks by oral gavage to rats starting from the 7th week after weaning. Control rats received only the vehicle (olive oil). Rostafuroxin treatment started 7 weeks before the induction of liver fibrosis by CCl4 administration (pretreatment) and was continued during the CCl4 treatment for three weeks. Rostafuroxin was orally administered at 1 mg/kg/day, suspended in Methocel (0.5%). […]
A quantitative analysis of the degree of fibrosis, following the histological qualitative analysis, was performed by digital imaging conversion of the histological pictures by a previously described method (J. Gastroenterol. 2004, Oct. 1; 10(19)2894-2897).
Briefly, after staining with Sirius Red, liver collagen content was measured by histomorphometric method. […] Each picture was analyzed by computer system ImageJ version 1.39 for digital image analysis. […] The fibrotic area with positive staining were automatically selected, outlined and evaluated. Relative content of collagen was calculated as a percentage of positive staining pixels on the total number of pixels of the picture.

[2] = test system: MHS rats with CCl4-induced liver fibrosis; assay: CCl4-induced liver fibrosis: serum albuminemia and transaminases (ALT and AST)
Excerpt: as §1
(§2) Liver fibrosis was induced by CCl4 oral administration as described in J. Hepatol. 1999; 30: 621-631, with minor modifications: 0.375 ml/kg of CCl4 dissolved in olive oil was administered three times per week for three weeks by oral gavage to rats starting from the 7th week after weaning. Control rats received only the vehicle (olive oil). Rostafuroxin treatment started 7 weeks before the induction of liver fibrosis by CCl4 administration (pretreatment) and was continued during the CCl4 treatment for three weeks. Rostafuroxin was orally administered at 1 mg/kg/day, suspended in Methocel (0.5%). A total of twenty four MHS rats of 25 days of age (weaning) were subdivided in three groups of 8 rats each: the first group, considered as negative control for liver fibrosis induction (Ctr.), was orally treated with the Rostafuroxin vehicle (Methocel 0.5%) along the entire period (10 weeks) and received the olive oil as vehicle of CCl4 at the 7th week after weaning for three weeks; the second group, considered as positive control for liver fibrosis (Ctr. LF), was orally treated with the Rostafuroxin vehicle (Methocel 0.5%) along the entire period (10 weeks) and received CCl4 at the 7th week after weaning for three weeks; the third group, Rostafuroxin treated with liver fibrosis (RLF), received Rostafuroxin at 1 mg/kg along the entire period (10 weeks) and received CCl4 at the 7th week after weaning for three weeks. At the end of the treatment (10th week), rats were weighed and anaesthetized with pentobarbital for blood sampling and organ removal. The blood was let clotted and serum separated after centrifugation and saved for measurement of serum albuminemia and transaminases (ALT and AST) on a Pentra 400 (ABX) Automatic Hematology Analyzer. Spleen and liver were removed and weighed. Samples of the liver median lobe were immediately frozen in liquid nitrogen and kept at −80° for further biochemical measurement of the 4-Hydroxiproline liver content, taken as an index of collagen deposition (Biochem. J. 1961; 80(1): 148-154). The rest of the liver was preserved in a 10% buffered formalin solution for the histological analysis.

[3] = test system: MHS rats with CCl4-induced liver fibrosis; assay: CCl4-induced liver fibrosis: histopathology and qualitative fibrosis score on Syrius red stained slides; parameters: key to Liver fibrosis score, histological appearance (FIG. 8): 0: Absence of liver fibrosis, but normal staining pattern only; 1: Mild degree, corresponding to centrilobular/periportal fibrosis, with predominantly uncomplete septal expansion—mild focal interstitial fibrosis; 2: Moderate degree, corresponding to diffuse bridging fibrosis, with focal nodular appearance—multifocal interstitial fibrosis; 3: Severe degree, corresponding to confluent fibrosis, with diffuse nodular appearance—severe diffuse interstitial fibrosis
Excerpt: as §1, §2
For each case, the median and the left lobes of the liver were subjected to standard trimming and embedding procedures; slides were stained with Hematoxylin and Eosin (H&E) (Laboratory Methods in Histotechnology; Armed Forces Institute of Pathology Published by the American Registry of Pathology Washington, D.C. 1992). Special techniques were also applied in order to allow proper connective tissue detection (Masson's Trichrome stain—Laboratory Methods in Histotechnology; Armed Forces Institute of Pathology Published by the American Registry of Pathology Washington, D.C. 1992) as well as specific collagen detection and hepatic fibrosis evaluation (Syrius red staining method as described in The Journal of Histochemistry and Citochemistry 1985; vol 33, No. 8, pp. 737-743).
Liver fibrosis was qualitatively scored on Syrius red stained slides as follows:
0=Absence of liver fibrosis, but normal staining pattern only;
1=Mild degree, corresponding to centrilobular/periportal fibrosis, with predominantly uncomplete septal expansion—mild focal interstitial fibrosis;
2=Moderate degree, corresponding to diffuse bridging fibrosis, with focal nodular appearance—multifocal interstitial fibrosis;
3=Severe degree, corresponding to confluent fibrosis,
with diffuse nodular appearance—severe diffuse interstitial fibrosis. […]

[4] = test system: MHS rats with CCl4-induced liver fibrosis; assay: CCl4-induced liver fibrosis: body and organ weights
Excerpt: as §1, §2

[5] = test system: MHS rats with CCl4-induced liver fibrosis; assay: CCl4-induced liver fibrosis: hydroxyproline liver content
Excerpt: as §1
Liver fibrosis was induced by CCl4 oral administration as described in J. Hepatol. 1999; 30: 621-631, with minor modifications: 0.375 ml/kg of CCl4 dissolved in olive oil was administered three times per week for three weeks by oral gavage to rats starting from the 7th week after weaning. Control rats received only the vehicle (olive oil). Rostafuroxin treatment started 7 weeks before the induction of liver fibrosis by CCl4 administration (pretreatment) and was continued during the CCl4 treatment for three weeks. Rostafuroxin was orally administered at 1 mg/kg/day, suspended in Methocel (0.5%). A total of twenty four MHS rats of 25 days of age (weaning) were subdivided in three groups of 8 rats each: the first group, considered as negative control for liver fibrosis induction (Ctr.), was orally treated with the Rostafuroxin vehicle (Methocel 0.5%) along the entire period (10 weeks) and received the olive oil as vehicle of CCl4 at the 7th week after weaning for three weeks; the second group, considered as positive control for liver fibrosis (Ctr. LF), was orally treated with the Rostafuroxin vehicle (Methocel 0.5%) along the entire period (10 weeks) and received CCl4 at the 7th week after weaning for three weeks; the third group, Rostafuroxin treated with liver fibrosis (RLF), received Rostafuroxin at 1 mg/kg along the entire period (10 weeks) and received CCl4 at the 7th week after weaning for three weeks. […]
Hydroxyproline liver content was determined as described in Anal. Biochem. 1981; 112: 70-75, with slight modifications.
Liver tissue (0.4 g) was homogenized in 3 ml 6 N HCl and hydrolyzed at 110° C. for 24 h. […] After cooling, the absorbance was measured at 558 nm (Jasco V-530).

[6] = test system: MNS rats without arterial hypertension; assay: Prevention of restenosis after carotid surgical injury, morphometry of the carotid lumen area; settings: 100 μg/kg orally, carotid taken 30 days after injury
Description: (§3) The carotid surgical injury model used on MHS and MNS rat is described in J. Cell. Physiol. 2001; 186:307-313.
(§4) Briefly, a plastic Scanlon clamp for coronary artery bypass grafting was placed for 10 seconds on the carotid artery in order to cause a crushing lesion to vessel. At the same point where the clamp was applied, a 0.5 mm longitudinal incision was performed on the full thickness of the carotid artery. […] Hemostasis was obtained with a single adventitial 8.0-gauge polypropylene stitch. Once bleeding stopped, the carotid artery was carefully examined and blood pulsation was checked distally to the incision.
Carotid arteries were taken 30 days after injury. Rats were anaesthetized and carotids were dissected free from the surrounding tissues. […]
(§5) For each injured carotid, at least 60 serial cross-sections were observed under a light microscope at 20× magnification; image screening and photography were performed using Leica IM 1000 System (Leica, Wetzlar, Germany). The sections of injured carotids showing maximal remodelling and proliferative phenomena were identified and further analyzed.
(§6) Lumen and medial areas were measured using the Leica IM 1000 software (Leica, Heerbrugg, Switzerland). […] For each contralateral uninjured carotid, at least 10 sections were analyzed and the average media and lumen areas were calculated. […]

[7] = test system: spontaneous hypertensive MHS rats; assay: Prevention of restenosis after carotid surgical injury (endoartherectomy model), morphometry of the carotid lumen area
Excerpt: as §1, with “prevention” for “prevention and treatment”, “restenosis after endoartherectomy,” for “organ fibrosis,”
After this period rats were subjected to the vascular surgical injury according to the protocol listed below. After surgical injury, rats were maintained under treatment either with vehicle or Rostafuroxin for further 30 days and then sacrificed for carotid artery sampling. […] The final number of rats used for the histological carotid analysis was; MHS vehicle=7, MHS Rostafuroxin=9.
as §3, §4
Carotid arteries were taken 30 days after injury. […]
as §5, §6

[8] = RLF group, 1 mg/kg os for 10 weeks + CCl4, individual rats, 1 mg/kg
[9] = rats with CCl4-induced liver fibrosis, vs Ctr. LF, statistically significant
[10] = rats with CCl4-induced liver fibrosis, 1 mg/kg os

With `C[C@]12CC[C@H](O)C[C@H]1CC[C@@H]1[C@@H]2CC[C@]2(C)[C@@](O)(c3ccoc3)CC[C@]12O` [Rostafuroxin, 17 beta-(3-Furyl)-5 beta-androstane-3beta, 14 beta, 17 alpha-triol] as the compound, how does the “% FIBROTIC AREA, mean” value ([1]; RLF group, 1 mg/kg os for 10 weeks + CCl4, group mean (n=8), Ctr. LF mean 10.48) read?
The value was 5.50%.

And the “% FIBROTIC AREA” value [1, 8]?
Its value is 4.64% and 5.50% and 1.44% and 6.63% and 6.89% and 5.08% and 11.80% and 2.01%.

What about the “Reduction of liver fibrotic area” value [1, 9] of the same compound?
Its value is 47.5%.

And the “Albumin, mean” value ([2]; RLF group, 1 mg/kg os for 10 weeks + CCl4, group mean (n=8), Ctr. LF mean 3.02)?
Its value is 3.53 g/dL.

And the Albumin [2, 8]?
The Albumin was 3.65 g/dL and 3.36 g/dL and 4.15 g/dL and 2.95 g/dL and 3.19 g/dL and 3.07 g/dL and 3.82 g/dL and 4.04 g/dL.

And the “Transaminases (ALT and AST)” value [2, 10]?
Its value is “not modified”.

And the “Increase of plasma levels of albumin” value [2, 9]?
Its value is 16.8%.

And the “Extension of liver tissue damage (histopathology)” value ([3]; CCl4-treated rats, 1 mg/kg os, compared with Ctr. LF group, 1 mg/kg)?
Its value is “minor extension of tissue damage; also recorded: less extended tissue damage”.

What about the “Liver fibrosis Absence (score 0), % of rats” value ([3]; RLF group, 1 mg/kg OS + CCl4) of the same compound?
Its value is 0%.

And the “Liver fibrosis Absence (score 0), No. of rats” value ([3]; RLF group, 1 mg/kg OS + CCl4)?
The value was 0/8.

What about the “Liver fibrosis Mild (score 1), % of rats” value ([3]; RLF group, 1 mg/kg OS + CCl4) of the same compound?
The value was 75%.

What about the “Liver fibrosis Mild (score 1), No. of rats” value ([3]; RLF group, 1 mg/kg OS + CCl4) of the same compound?
Its value is 6/8.

What about the “Liver fibrosis Moderate (score 2), % of rats” value ([3]; RLF group, 1 mg/kg OS + CCl4) of the same compound?
Its value is 25%.

What about the “Liver fibrosis Moderate (score 2), No. of rats” value ([3]; RLF group, 1 mg/kg OS + CCl4) of the same compound?
The value was 2/8.

What about the “Liver fibrosis Severe (score 3), % of rats” value ([3]; RLF group, 1 mg/kg OS + CCl4) of the same compound?
Its value is 0%.

And the “Liver fibrosis Severe (score 3), No. of rats” value ([3]; RLF group, 1 mg/kg OS + CCl4, 1 mg/kg)?
The value was “no rats and 0/8”.

What about the “Liver fibrosis score, histological appearance (FIG. 8)” value ([3]; liver from two CCl4 rats treated at 1 mg/kg os (RLF group)) of the same compound?
Its value is 1.

And the “Spleen/bw, mean” value ([4]; RLF group, 1 mg/kg os for 10 weeks + CCl4, group mean (n=8), Ctr. LF mean 0.355)?
Its value is 0.284%.

What about the Spleen/bw [4, 8] of the same compound?
Its Spleen/bw is 0.251% and 0.316% and 0.261% and 0.262% and 0.247% and 0.302% and 0.348% and 0.288%.

And the “Weight of the liver” value [4, 10]?
The value was “not modified”.

What about the “Reduction of spleen weight” value [4, 9] of the same compound?
The value was 20%.

And the “Liver hydroxyproline, mean” value ([5]; RLF group, 1 mg/kg os for 10 weeks + CCl4, group mean (n=8), Ctr. LF mean 1596.45)?
The value was 1184.9 μg/g prot.

And the Liver hydroxyproline [5, 8]?
Its Liver hydroxyproline is 886.5 μg/g prot and 791.6 μg/g prot and 1217.4 μg/g prot and 811.0 μg/g prot and 799.8 μg/g prot and 2762.3 μg/g prot and 750.0 μg/g prot and 1460.7 μg/g prot.

What about the “Reduction of liver content of hydroxyproline” value ([5]; rats with CCl4-induced liver fibrosis, vs Ctr. LF) of the same compound?
The value was 25.8%.

And the “Carotid lumen area, Injured/Uninjured carotid ratio, mean” value ([6]; group mean (n=10), vehicle mean 0.540)?
The value was 0.765.

What about the “Carotid lumen area, Injured/Uninjured carotid ratio” value ([6]; individual animals) of the same compound?
Its value is 0.93 and 0.83 and 0.80 and 0.76 and 0.75 and 0.68 and 0.59 and 0.36 and 1.00 and 0.95.

And the “Change in arterial restenosis vs vehicle” value ([7]; MHS rats with arterial hypertension, vs vehicle, statistically significant)?
The value was −45%.

And the “Carotid lumen area, Injured/Uninjured carotid ratio, mean” value ([7]; MHS rats, 100 μg/kg orally, carotid taken 30 days after injury, group mean (n=9), vehicle mean 0.379)?
The value was 0.680.

What about the “Carotid lumen area, Injured/Uninjured carotid ratio” value ([7]; MHS rats, 100 μg/kg orally, carotid taken 30 days after injury, individual animals) of the same compound?
Its value is 0.86 and 0.83 and 0.81 and 0.66 and 0.54 and 0.36 and 0.25 and 0.90 and 0.89.
